From patent US12544373B2, “Treatment of cancer, inflammatory diseases and autoimmune diseases” (Usher III Initiative, Inc., priority 2020, dated 2026)
Read-outs that look alike come from different tables or passages of the source.

Columns and labels:
Type in all cases: cell-based, human
PAXF 1657 = test: CellTiter-Blue 2D monolayer assay (Example 1), pancreas; settings: for Test/Control (%): 72 h
Protocol: (§1) Compound 85 was assessed in 10 human tumor cell lines (see Table 3) for anti-cancer activity in vitro using a CellTiter-Blue® based 2D monolayer assay.
(§2) CellTiter-Blue® Cell Viability Assay: Tumor cells were grown at 37° C. in a humidified atmosphere with 5% CO2 in RPMI medium, supplemented with 10% (v/v) fetal calf serum and 50 μg/ml gentamicin (140 μl/well). Cultures were incubated at 37° C. and 5% CO2 in a humidified atmosphere. After 24 hours, 10 μl of Compound 85 was added, and left on the cells for another 72 hours (incubation period). Compound 85 was tested at 5 concentrations (0.003 μM, 0.03 μM, 0.3 μM, 3 μM, and 30 μM) and serially diluted in DMSO, mixed with cell culture medium, and added to the assay plates by using a Tecan Freedom EVO 200 robotic platform. The DMSO concentration was kept constant at 0.3% yip across the assay plate. Every 96 well plate included six DMSO-treated control wells and Compound 85-treated wells in duplicate at 5 concentrations. Viability of cells was quantified using the CellTiter-Blue® cell viability assay (Promega G8081). After incubation of cells, the CellTiter-Blue® reagent was brought to ambient temperature. Next, 20 μl of CellTiter-Blue® reagent were added to each well. After incubation tier up to 4 hours, fluorescence (FU) was measured using the EnSpire® multimode plate reader (Perkin Elmer) ([…]).
(§3) Data Evaluation: Sigmoidal concentration-response curves were fitted to the data points (test-versus-control; T/C values) obtained for each tumor model using 4 parameter non-linear curve fit (Charles River DRS Datawarehouse Software). Drug effects are expressed in terms of the percentage of the fluorescence signal, obtained by comparison of the mean signal in the treated wells with the mean signal of the untreated controls (T/C-value [%]) (Table 4). IC50 and IC70 values were reported as relative and absolute IC50 and IC70 values (Table 5). The absolute IC50 and IC70 values reflect the concentration of Compound 85 that achieves T/C=50% and T/C=30%, respectively. The relative IC50 value is the concentration of Compound 85 that gives a response half way between the top and bottom plateau of the sigmoidal concentration-response curve (inflection point of the curve).

PAXF HUP-T3 = test: as above; settings: for Test/Control (%): 72 h
Protocol: as §1, §2, §3

CNXF 498 [1] = test: CellTiter-Blue 2D monolayer assay (Example 1), glioblastoma; settings: for Test/Control (%): 72 h
Protocol: as §1, §2, §3

CNXF U-87 MG [2] = test: as above; settings: for Test/Control (%): 72 h
Protocol: as §1, §2, §3

CNXF 498 [3] = test: CellTiter-Blue Cell Viability Assay (Example 2), glioblastoma; settings: for T/C %: 72 h
Excerpt: (§4) The CellTiter-Blue® Cell Viability Assay was used to assess the viability of cells from various cancer cell lines, in the presence or absence of Compound 85 (at different concentrations). This assay provides a homogeneous, fluorometric method for estimating the number of viable cells present in multi-well plates. Viable cells retain the ability to reduce resazurin to resorufin, which is highly fluorescent. […] The fluorescence produced is proportional to the number of viable cells. There is a linear relationship between cell number and fluorescence.
(§5) Cancer cells (see Table 6) were harvested from exponential phase cultures, counted and plated in 96 well flat-bottom microtiter plates, at a cell density 6,000-20,000 cells/well, depending on the cell line's growth rate. The culture medium was supplemented with 10% (v/v) foetal calf serum and 50 μg/mL gentamicin (140 μL/well). Cultures were incubated at 37° C. and 5% CO2 in a humidified atmosphere.
(§6) Compound 85 was serially diluted in DMSO, and five Compound 85 concentrations in half-log increments were used: 0.03 μM, 0.09 μM, 0.30 μM, 1.0 μM, and 3.0 μM. After 24 h, 10 μL of Compound 85 (dissolved in DMSO) or control (DMSO) medium were added, in duplicates, and left on the cells for another 72 h. Compound 85 solutions were added to the assay plates using a Tecan Freedom EVO 200 robotic platform. The DMSO concentration was kept constant at 0.3% v/v across the assay plate.
(§7) After incubation of up to 72 hours, fluorescence (FU) was measured using the EnSpire® multimode plate reader (Perkin Elmer) (excitation λ=570 nm, emission λ=600 nm).
(§8) Cancer cell lines used: Compound 85's anti-cancer effect was tested in 20 human cancer-cell lines representing nine cancer types (Table 6).
(§9) The percentage of viable cells in the presence of Compound 85 (Test condition, T), at different concentrations, are presented in Table 7 and expressed as a percentage of the number of viable cells in the presence of DMSO without Compound 85 (Control condition, C).
(§10) The relative IC50 is determined as the Compound 85 concentration giving a response halfway between the maximum cell viability signal (i.e., a 100% cell viability, no Compound 85 response) and the minimal viability signal (i.e. maximum cell viability inhibition achieved by Compound 85), in a sigmoidal concentration-effect curve.
(§11) The absolute IC50 is determined as the concentration that is associated with a T/C ratio of 50%.

CNXF U-87 MG [4] = test: as above; settings: for T/C %: 72 h
Excerpt: as §4, §5, §6, §7, §8, §9, §10, §11

CC(C)(O)Cn1nc(-c2ccccc2)c2c(Cl)c(-c3ccccc3)nnc21 [Compound 85]
Rel. IC70 (PAXF 1657): 2.043 µM | Test/Control (%) (PAXF 1657; 0.003 μM): 100% | Test/Control (%) (PAXF 1657; 0.03 μM): 100% | Test/Control (%) (PAXF 1657; 0.3 μM): 100% | Test/Control (%) (PAXF 1657; 3 μM): 3% | Test/Control (%) (PAXF 1657; 30 μM): 1% | Abs. IC70 (PAXF 1657; T/C=30%): 2.055 µM | IC50 (PAXF 1657; T/C=50%, read-out: Abs. IC50): 1.85 µM | Bot. (%) (PAXF 1657; bottom plateau of curve): 1% | IC50 (PAXF 1657; read-out: Rel. IC50): 1.84 µM | Top (%) (PAXF 1657; top plateau of curve): 100% | Rel. IC70 (PAXF HUP-T3): 1.505 µM | Test/Control (%) (PAXF HUP-T3; 0.003 μM): 100% | Test/Control (%) (PAXF HUP-T3; 0.03 μM): 101% | Test/Control (%) (PAXF HUP-T3; 0.3 μM): 79% | Test/Control (%) (PAXF HUP-T3; 3 μM): 16% | Test/Control (%) (PAXF HUP-T3; 30 μM): 6% | Abs. IC70 (PAXF HUP-T3; T/C=30%): 1.518 µM | IC50 (PAXF HUP-T3; T/C=50%, read-out: Abs. IC50): 0.794 µM | Bot. (%) (PAXF HUP-T3; bottom plateau of curve): 0% | IC50 (PAXF HUP-T3; read-out: Rel. IC50): 0.785 µM | Top (%) (PAXF HUP-T3; top plateau of curve): 101% | Rel. IC70 (CNXF 498 [1]): 1.868 µM | Test/Control (%) (CNXF 498 [1]; 0.003 μM): 106% | Test/Control (%) (CNXF 498 [1]; 0.03 μM): 107% | Test/Control (%) (CNXF 498 [1]; 0.3 μM): 113% | Test/Control (%) (CNXF 498 [1]; 3 μM): 2% | Test/Control (%) (CNXF 498 [1]; 30 μM): 1% | Abs. IC70 (CNXF 498 [1]; T/C=30%): 1.901 µM | IC50 (CNXF 498 [1]; T/C=50%, read-out: Abs. IC50): 1.74 µM | Bot. (%) (CNXF 498 [1]; bottom plateau of curve): 1% | IC50 (CNXF 498 [1]; read-out: Rel. IC50): 1.71 µM | Top (%) (CNXF 498 [1]; top plateau of curve): 109% | Rel. IC70 (CNXF U-87 MG [2]): 0.987 µM | Test/Control (%) (CNXF U-87 MG [2]; 0.003 μM): 99% | Test/Control (%) (CNXF U-87 MG [2]; 0.03 μM): 102% | Test/Control (%) (CNXF U-87 MG [2]; 0.3 μM): 102% | Test/Control (%) (CNXF U-87 MG [2]; 3 μM): 1% | Test/Control (%) (CNXF U-87 MG [2]; 30 μM): 4% | Abs. IC70 (CNXF U-87 MG [2]; T/C=30%): 0.994 µM | IC50 (CNXF U-87 MG [2]; T/C=50%, read-out: Abs. IC50): 0.94 µM | Bot. (%) (CNXF U-87 MG [2]; bottom plateau of curve): 3% | IC50 (CNXF U-87 MG [2]; read-out: Rel. IC50): 0.935 µM | Top (%) (CNXF U-87 MG [2]; top plateau of curve): 101% | Absolute IC70 (CNXF 498 [3]): 1.901 µM | Relative IC70 (CNXF 498 [3]): 1.868 µM | T/C % (CNXF 498 [3]; 0.03 μM): 106% | T/C % (CNXF 498 [3]; 0.095 μM): 107% | T/C % (CNXF 498 [3]; 0.3 μM): 113% | T/C % (CNXF 498 [3]; 0.95 μM): 2% | T/C % (CNXF 498 [3]; 3.0 μM): 1% | IC50 (CNXF 498 [3]; read-out: Absolute IC50): 1.74 µM | IC50 (CNXF 498 [3]; read-out: Relative IC50): 1.71 µM | Absolute IC70 (CNXF U-87 MG [4]): 0.9938 µM | Relative IC70 (CNXF U-87 MG [4]): 0.9869 µM | T/C % (CNXF U-87 MG [4]; 0.03 μM): 99% | T/C % (CNXF U-87 MG [4]; 0.095 μM): 102% | T/C % (CNXF U-87 MG [4]; 0.3 μM): 102% | T/C % (CNXF U-87 MG [4]; 0.95 μM): 1% | T/C % (CNXF U-87 MG [4]; 3.0 μM): 4% | IC50 (CNXF U-87 MG [4]; read-out: Absolute IC50): 0.94 µM | IC50 (CNXF U-87 MG [4]; read-out: Relative IC50): 0.935 µM
